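Growth conditions: 96-well plates. Treatment: test compound, 48 hours, 5 concentrations. Analysis: linear interpolation between bracketing concentrations; unreached endpoints set to highest concentration. GI50 marks 50% less growth. TGI marks complete inhibition of growth.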
What was measured:
Test in all cases: NCI tumour cell line growth inhibition, 48 h
[1] = system: 786-0 renal
[2] = system: A549 NSCLC
[3] = system: HS 578T breast
[4] = system: COLO 205 colon
[5] = system: U251 CNS
[6] = system: OVCAR-4 ovarian
[7] = system: CCRF-CEM leukemia
[8] = system: UO-31 renal
[9] = system: DU-145 prostate
[10] = system: PC-3 prostate
[11] = system: LOX IMVI melanoma
[12] = system: SR leukemia
[13] = system: HCT-15 colon
[14] = system: HT29 colon
[15] = system: EKVX NSCLC
[16] = system: OVCAR-5 ovarian
[17] = system: NCI/ADR-RES ovarian
[18] = system: OVCAR-3 ovarian
[19] = system: MDA-MB-435
[20] = system: OVCAR-8 ovarian
[21] = system: SW-620 colon
[22] = system: RXF 393 renal
[23] = system: SK-MEL-2 melanoma
[24] = system: TK-10 renal
[25] = system: SF-539 CNS
[26] = system: BT-549 breast
[27] = system: KM12 colon
[28] = system: HCT-116 colon
[29] = system: RPMI-8226 leukemia
[30] = system: UACC-257 melanoma
[31] = system: HOP-62 NSCLC
[32] = system: M14 melanoma
[33] = system: SN12C renal
[34] = system: IGROV1 ovarian
[35] = system: UACC-62 melanoma
[36] = system: K-562 leukemia
[37] = system: HL-60(TB) leukemia
[38] = system: NCI-H522 lung
[39] = system: SF-295 CNS
[40] = system: A498 renal
[41] = system: SK-MEL-28 melanoma
[42] = system: CAKI-1 renal
[43] = system: MCF7 breast
[44] = system: SNB-19 CNS
[45] = system: T-47D breast
[46] = system: NCI-H460 lung
[47] = system: SNB-75 CNS
[48] = system: SK-MEL-5 melanoma
[49] = system: SK-OV-3 ovarian
[50] = system: SF-268 CNS
[51] = system: MOLT-4 leukemia
[52] = system: NCI-H226 lung
[53] = system: MDA-MB-231 breast
[54] = system: MALME-3M melanoma

Cc1ccnc(NC(=S)Nc2cccc(Cl)c2)c1 gave a TGI [1] greater than 100 µM, a TGI [2] greater than 100 µM and a TGI [3] greater than 100 µM. For the same compound, the TGI [4] was greater than 100 µM, the TGI [5] was greater than 100 µM and the TGI [6] was greater than 100 µM. For the same compound, the TGI [7] was greater than 100 µM, the TGI [8] was greater than 100 µM and the TGI [9] was greater than 100 µM. The TGI [10] was greater than 100 µM, the TGI [11] was greater than 100 µM and the TGI [12] was greater than 100 µM. For the same compound, the TGI [13] was greater than 100 µM, the TGI [14] was greater than 100 µM and the TGI [15] was greater than 100 µM. It also gave a TGI [16] greater than 100 µM, a TGI [17] greater than 100 µM and a TGI [18] greater than 100 µM. For the same compound, the TGI [19] was greater than 100 µM, the TGI [20] was greater than 100 µM and the TGI [21] was greater than 100 µM. For the same compound, the TGI [22] was greater than 100 µM, the TGI [23] was greater than 100 µM and the TGI [24] was greater than 100 µM. For the same compound, the TGI [25] was greater than 100 µM, the TGI [26] was greater than 100 µM and the TGI [27] was greater than 100 µM. It also gave a TGI [28] greater than 100 µM, a TGI [29] greater than 100 µM and a TGI [30] greater than 100 µM. It also gave a TGI [31] greater than 100 µM, a TGI [32] greater than 100 µM and a TGI [33] greater than 100 µM. The TGI [34] was greater than 100 µM, the TGI [35] was greater than 100 µM and the TGI [36] was greater than 100 µM. It also gave a TGI [37] greater than 100 µM, a TGI [38] of 9.85 µM and a TGI [39] greater than 100 µM. It also gave a TGI [40] greater than 100 µM, a TGI [41] greater than 100 µM and a TGI [42] greater than 100 µM. It also gave a TGI [43] greater than 100 µM, a TGI [44] greater than 100 µM and a TGI [45] greater than 100 µM. It also gave a TGI [46] greater than 100 µM, a TGI [47] greater than 100 µM and a TGI [48] greater than 100 µM. For the same compound, the TGI [49] was greater than 100 µM, the TGI [50] was greater than 100 µM and the TGI [51] was greater than 100 µM.
Compound COc1ccc2c(c1)C(=O)c1c-2n(CCCN)c(=O)c2cc([N+](=O)[O-])ccc12 has a GI50 [1] of less than 0.01 µM, a TGI [1] of less than 0.01 µM and a GI50 [3] of 1.81 µM. The TGI [3] was 4.44 µM, the GI50 [52] was less than 0.01 µM and the TGI [52] was less than 0.01 µM. The GI50 [5] was less than 0.01 µM, the GI50 [7] was less than 0.01 µM and the TGI [7] was less than 0.01 µM. It also gave a GI50 [8] of less than 0.01 µM, a TGI [8] of 0.0172 µM and a GI50 [9] of less than 0.01 µM. It also gave a TGI [9] of 0.0193 µM, a GI50 [10] of less than 0.01 µM and a TGI [10] of 1.79 µM. The GI50 [11] was less than 0.01 µM, the TGI [11] was less than 0.01 µM and the GI50 [12] was less than 0.01 µM. The TGI [12] was less than 0.01 µM, the GI50 [13] was 1.77 µM and the TGI [13] was greater than 100 µM. It also gave a GI50 [15] of less than 0.01 µM, a TGI [15] of 2.31 µM and a GI50 [16] of less than 0.01 µM. The TGI [16] was less than 0.01 µM, the GI50 [18] was 2.79 µM and the TGI [18] was 15.9 µM. It also gave a GI50 [19] of 3.3 µM, a TGI [19] of 19.5 µM and a GI50 [21] of less than 0.01 µM. For the same compound, the TGI [21] was 0.146 µM, the GI50 [22] was less than 0.01 µM and the TGI [22] was less than 0.01 µM. The GI50 [23] was 3.06 µM, the TGI [23] was 8.53 µM and the GI50 [24] was 3.33 µM. The TGI [24] was 10 µM, the GI50 [25] was less than 0.01 µM and the TGI [25] was less than 0.01 µM. It also gave a GI50 [26] of less than 0.01 µM, a GI50 [27] of 1.5 µM and a TGI [27] of 3.46 µM. For the same compound, the GI50 [28] was less than 0.01 µM, the TGI [28] was 0.0119 µM and the GI50 [29] was less than 0.01 µM. For the same compound, the TGI [29] was less than 0.0222 µM, the GI50 [30] was less than 0.01 µM and the TGI [30] was 0.736 µM. For the same compound, the GI50 [31] was less than 0.01 µM, the TGI [31] was 0.0234 µM and the GI50 [32] was less than 0.01 µM. For the same compound, the TGI [32] was less than 0.01 µM, the GI50 [33] was less than 0.01 µM and the TGI [33] was less than 0.01 µM. The GI50 [34] was less than 0.01 µM, the TGI [34] was 0.192 µM and the GI50 [35] was less than 0.01 µM. The TGI [35] was less than 0.01 µM, the GI50 [36] was less than 0.01 µM and the TGI [36] was 1.31 µM. It also gave a GI50 [53] of 0.1 µM, a TGI [53] of 0.227 µM and a GI50 [38] of less than 0.01 µM. It also gave a TGI [38] of 2.91 µM, a GI50 [39] of less than 0.01 µM and a TGI [39] of 12.2 µM. It also gave a GI50 [40] of less than 0.01 µM, a TGI [40] of less than 0.01 µM and a GI50 [42] of less than 0.01 µM. The TGI [42] was less than 0.01 µM, the GI50 [43] was less than 0.01 µM and the TGI [43] was less than 0.01 µM. It also gave a GI50 [44] of less than 0.01 µM, a TGI [44] of 2.13 µM and a GI50 [45] of less than 0.01 µM. For the same compound, the TGI [45] was 1.86 µM, the GI50 [46] was less than 0.01 µM and the TGI [46] was 0.0146 µM. For the same compound, the GI50 [49] was less than 0.01 µM, the TGI [49] was less than 0.01 µM and the GI50 [50] was less than 0.01 µM. The TGI [50] was less than 0.01 µM, the GI50 [51] was less than 0.01 µM and the TGI [51] was less than 0.01 µM. The GI50 [54] was 2.25 µM and the TGI [54] was 7.64 µM.
